# Measured values from ChEMBL document CHEMBL5226286, “The application of isatin-based multicomponent-reactions in the quest for new bioactive and druglike molecules” (Eur J Med Chem, 2021).
# Activity calls are given as the source filed them. The rule behind the calls is not given here.
# What was measured:
# HepG2 [1] = assay: cells; format: functional, cell-based; details: Homo sapiens
# MCF7 [2] = assay: cells; format: functional, cell-based; details: Homo sapiens
# MGC-803 = assay: Antiproliferative activity against human MGC-803 cells; format: functional, cell-based
# MCF7 [3] = assay: Antiproliferative activity against human MCF7 cells by MTT reduction assay; format: functional, cell-based
# ECa-109 cell line = assay: Antiproliferative activity against human EC109 cells; format: functional, cell-based
# SMMC-7721 = assay: Antiproliferative activity against human SMMC-7721 cells; format: functional, cell-based
# Ehrlich = assay: Cytotoxicity against mouse EAC cells assessed as reduction in cell viability incubated for 2 hrs by trypan blue staining based microscopic analysis; format: functional
# Pseudomonas aeruginosa [4] = assay: Antibacterial activity against Pseudomonas aeruginosa incubated for 24 to 48 hrs by agar diffusion well method; format: functional; details: time 24-48 hrs
# Pseudomonas aeruginosa [5] = assay: Antibacterial activity against Pseudomonas aeruginosa ATCC 85327; format: functional
# Streptococcus pneumoniae [6] = assay: Antibacterial activity against Streptococcus pneumoniae RCMB 010010 incubated for 24 hrs by agar well diffusion method; format: functional
# Bacillus subtilis [7] = assay: Antibacterial activity against Bacillus subtilis; format: functional
# Streptococcus pneumoniae [8] = assay: Antibacterial activity against Streptococcus pneumoniae incubated for 24 to 48 hrs by agar diffusion well method; format: functional; details: time 24-48 hrs
# Bacillus subtilis [9] = assay: Antibacterial activity against Bacillus subtilis RCMB 010067 incubated for 24 hrs by agar well diffusion method; format: functional
# Escherichia coli [10] = assay: Antimicrobial activity against Escherichia coli ATCC 25922; format: functional
# Escherichia coli [11] = assay: Antibacterial activity against Escherichia coli incubated for 24 to 48 hrs by agar diffusion well method; format: functional; details: time 24-48 hrs
# Bacillus subtilis [12] = assay: Antibacterial activity against Bacillus subtilis incubated for 24 to 48 hrs by agar diffusion well method; format: functional; details: time 24-48 hrs
# Staphylococcus aureus [13] = assay: Antibacterial activity against Staphylococcus aureus MTCC 96; format: functional
# Staphylococcus aureus [14] = assay: Antibacterial activity against Staphylococcus aureus ATCC 25923; format: functional
# Klebsiella pneumoniae [15] = assay: Antibacterial activity against Klebsiella pneumoniae ATCC 29655; format: functional
# Proteus mirabilis = assay: Antibacterial activity against Proteus mirabilis; format: functional
# Enterococcus faecalis = assay: Antibacterial activity against Enterococcus faecalis ATCC 29737; format: functional
# [16] = system: Staphylococcus epidermidis; assay: Antibacterial activity against Staphylococcus epidermidis ATCC 12228; format: functional
# Escherichia coli [17] = assay: Antibacterial activity against Escherichia coli MTCC 1689; format: functional
# Bacillus pumilus = assay: Antibacterial activity against Bacillus pumilus PTCC 1114; format: functional
# Bacillus subtilis [18] = assay: Antibacterial activity against Bacillus subtilis MTCC 441; format: functional
# Bacillus subtilis [19] = assay: Antibacterial activity against Bacillus subtilis ATCC 465; format: functional
# Micrococcus luteus = assay: Antibacterial activity against Micrococcus luteus PTCC 1110; format: functional
# Streptococcus mutans = assay: Antibacterial activity against Streptococcus mutans PTCC 1601; format: functional
# MCF7 [20] = assay: Anticancer activity against human MCF7 cells by MTT assay; format: functional, cell-based
# HepG2 [21] = assay: Anticancer activity against human HepG2 cells by MTT assay; format: functional, cell-based
# HCT-116 = assay: Anticancer activity against human HCT-116 cells by MTT assay; format: functional, cell-based
# NIH3T3 = assay: Anticancer activity against mouse 3T3 cells measured after 48 hrs by MTT assay; format: functional, cell-based; details: NIH3T3, 48 h
# Leishmania major = assay: Antileishmanial activity against Leishmania major promastigotes incubated for 72 hrs by micrscopic analysis; format: functional
# HeLa [22] = assay: Anticancer activity against human HeLa cells measured after 48 hrs by MTT assay; format: functional, cell-based
# K562 = assay: Antiproliferative activity against human K562 cells by MTT reduction assay; format: functional, cell-based
# HeLa [23] = assay: Anticancer activity against human HeLa cells by MTT assay; format: functional, cell-based
# Bacillus subtilis [24] = assay: Antibacterial activity against Bacillus subtilis by disc diffusion method; format: functional
# Staphylococcus aureus [25] = assay: Antibacterial activity against Staphylococcus aureus assessed as zone of inhibition; format: functional; also: test concentration or dose not given here
# Pseudomonas aeruginosa [26] = assay: Antibacterial activity against Pseudomonas aeruginosa by disc diffusion method; format: functional
# Escherichia coli [27] = assay: Antibacterial activity against Escherichia coli RCMB 01100052 incubated for 24 hrs by agar well diffusion method; format: functional
# Escherichia coli [28] = assay: Antibacterial activity against Escherichia coli NCIM 2688 measured after 8 hrs; format: functional
# Pseudomonas aeruginosa [29] = assay: Antibacterial activity against Pseudomonas aeruginosa RCMB 010043 incubated for 24 hrs by agar well diffusion method; format: functional
# Pseudomonas aeruginosa [30] = assay: Antibacterial activity against Pseudomonas aeruginosa NCIM […] measured after 8 hrs; format: functional
# Escherichia coli [31] = assay: Antibacterial activity against Escherichia coli by disc diffusion method; format: functional
# Bacillus subtilis [32] = assay: Antibacterial activity against Bacillus subtilis NCIM 2079 measured after 12 hrs; format: functional
# Staphylococcus aureus [33] = assay: Antibacterial activity against Staphylococcus aureus NCIM 2010 measured after 12 hrs; format: functional
# Staphylococcus aureus [34] = assay: Antibacterial activity against Staphylococcus aureus by disc diffusion method; format: functional
# Escherichia coli [35] = assay: Antibacterial activity against Escherichia coli assessed as zone of inhibition; format: functional; also: test concentration or dose not given here
# MCF7 [36] = assay: Antiproliferative activity against human MCF7; format: functional, cell-based
# WI-38 = assay: Antiproliferative activity against human WI-38; format: functional, cell-based
# Staphylococcus aureus [37] = assay: Antibacterial activity against Staphylococcus aureus ATCC 29213; format: functional
# Pseudomonas aeruginosa [38] = assay: Antibacterial activity against Pseudomonas aeruginosa ATCC 27853; format: functional
# Pseudomonas aeruginosa [39] = assay: Antibacterial activity against multidrug resistant Pseudomonas aeruginosa 025; format: functional
# Staphylococcus aureus [40] = assay: Antibacterial activity against methicillin resistant Staphylococcus aureus ATCC 43300; format: functional
# Escherichia coli [41] = assay: Antibacterial activity against Escherichia coli ATCC 25922; format: functional
# Pseudomonas aeruginosa [42] = assay: Antibacterial activity against multidrug resistant Pseudomonas aeruginosa 034; format: functional
# Pseudomonas aeruginosa [43] = assay: Antibacterial activity against Pseudomonas aeruginosa No.010; format: functional
# Klebsiella pneumoniae [44] = assay: Antibacterial activity against Klebsiella pneumoniae ATCC 700603; format: functional
molecule,measurement,setting,value
CCOC(=O)C1=C(C)NC(=S)NC12C(=O)Nc1c(Cl)cc(Cl)cc12 (stereo not drawn),IC50,HepG2 [1],28.4 µM
same,IC50,MCF7 [2],21.3 µM
O=c1[nH]cc(F)c(=O)[nH]1 [FLUOROURACIL],IC50,MGC-803,7.6 µM
same,IC50,MCF7 [3],78.3 µM
same,IC50,ECa-109 cell line,10.6 µM
same,IC50,SMMC-7721,9.7 µM
same,ED25,Ehrlich,40 microg/cm3
GENTAMICIN,MIC,Pseudomonas aeruginosa [4],15.6 µg/mL
same,MIC,Pseudomonas aeruginosa [5],8 µg/mL
same,MIC,Streptococcus pneumoniae [6],inactive
same,MIC,Bacillus subtilis [7],0.125 µg/mL
same,MIC,Streptococcus pneumoniae [8],inactive
same,MIC,Bacillus subtilis [9],inactive
same,MIC,Escherichia coli [10],4 µg/mL
same,MIC,Escherichia coli [11],1.95 µg/mL
same,MIC,Bacillus subtilis [12],inactive
CN(C)[C@@H]1C(O)=C(C(N)=O)C(=O)[C@@]2(O)C(O)=C3C(=O)c4c(O)cccc4[C@@](C)(O)[C@H]3C[C@@H]12 [TETRACYCLINE],MIC,Staphylococcus aureus [13],5 µg/mL
same,MIC,Staphylococcus aureus [14],4 µg/mL
same,MIC,Klebsiella pneumoniae [15],16 µg/mL
same,MIC,Proteus mirabilis,15 µg/mL
same,MIC,Enterococcus faecalis,8 µg/mL
same,MIC,[16],< 2 µg/mL
same,MIC,Escherichia coli [17],10 µg/mL
same,MIC,Bacillus pumilus,8 µg/mL
same,MIC,Bacillus subtilis [18],10 µg/mL
same,MIC,Bacillus subtilis [19],4 µg/mL
same,MIC,Micrococcus luteus,4 µg/mL
same,MIC,Streptococcus mutans,2 µg/mL
CN1C[C@H](c2ccc(Cl)cc2Cl)[C@@H](C(=O)c2cc3ccccc3[nH]2)C12C(=O)Nc1ccccc12 (stereo partly drawn),IC50,MCF7 [20],15 µM
same,IC50,HepG2 [21],> 50 µM
same,IC50,HCT-116,< 1 µM
O=C1/C(=C/c2cccc([N+](=O)[O-])c2)CCC[C@]12[C@H]1CCCN1[C@]1(C(=O)Nc3ccccc31)[C@H]2c1cccc([N+](=O)[O-])c1,IC50,NIH3T3,19.1 µM
same,MIC,Leishmania major,6.8 µM
same,IC50,HeLa [22],4.8 µM
O=C1Nc2ccccc2[C@]12N1CSC[C@H]1[C@H](c1ccc(Br)cc1)[C@]21CCC/C(=C\c2ccc(Br)cc2)C1=O,IC50,K562,14.7 µM
same,IC50,MCF7 [3],15.3 µM
CN1C[C@@H](c2ccccc2Cl)[C@H](C(=O)c2c(O)c3ccccc3[nH]c2=O)[C@@]12C(=O)Nc1ccccc12,IC50,HeLa [23],10.7 µM
CC1(C)S[C@@H]2[C@H](NC(=O)[C@H](N)c3ccccc3)C(=O)N2[C@H]1C(=O)O [AMPICILLIN],MIC,Pseudomonas aeruginosa [4],inactive
same,MIC,Bacillus subtilis [24],250 µg/mL
same,diameter of the inhibition zone (DIZ),Staphylococcus aureus [25],6 mm
same,MIC,Pseudomonas aeruginosa [26],100 µg/mL
same,MIC,Escherichia coli [27],inactive
same,MIC90,Escherichia coli [28],1.46 µg/mL
same,MIC,Pseudomonas aeruginosa [29],inactive
same,MIC,Streptococcus pneumoniae [8],0.015 µg/mL
same,MIC90,Pseudomonas aeruginosa [30],4.36 µg/mL
same,MIC,Escherichia coli [31],100 µg/mL
same,MIC90,Bacillus subtilis [32],10.3 µg/mL
same,MIC,Escherichia coli [11],inactive
same,MIC,Bacillus subtilis [12],0.007 µg/mL
same,MIC90,Staphylococcus aureus [33],1 µg/mL
same,MIC,Staphylococcus aureus [34],250 µg/mL
same,diameter of the inhibition zone (DIZ),Escherichia coli [35],6 mm
CN1C(=O)C2(SC[C@@H](C(=O)O)[C@@H]2C(=O)c2ccc(Cl)c(Cl)c2)c2ccccc21 (stereo partly drawn),IC50,MCF7 [36],36.3 µM
same,IC50,WI-38,55.1 µM
COc1ccc(C2C3CCCN3C3(C(=O)Nc4ccccc43)C2C(=O)c2ccco2)cc1 (stereo not drawn),MIC,Staphylococcus aureus [37],64 µg/mL
same,MIC,Pseudomonas aeruginosa [38],15 µg/mL
same,MIC,Pseudomonas aeruginosa [39],16 µg/mL
same,MIC,Staphylococcus aureus [40],128 µg/mL
same,MIC,Escherichia coli [41],128 µg/mL
same,MIC,Pseudomonas aeruginosa [42],32 µg/mL
same,MIC,Pseudomonas aeruginosa [43],16 µg/mL
same,MIC,Klebsiella pneumoniae [44],128 µg/mL
